From ChEMBL document CHEMBL1687842, “Different genetic elements carrying the tet(W) gene in two human clinical isolates of Streptococcus suis” (2011)
Values after ≈ are worked out from the molar mass of the structure shown.

Legend:
Format in all cases: functional
Streptococcus suis [1] = experiment: Antimicrobial activity against Streptococcus suis UD isolated from cerebrospinal fluid of patient with meningitis by broth microdilution method
Streptococcus suis [2] = experiment: Antimicrobial activity against Streptococcus suis CA isolated from cerebrospinal fluid of patient with meningitis by broth microdilution method
Streptococcus pyogenes = experiment: Ratio of MIC for Streptococcus pyogenes 12RF transconjugant harboring ermB and tetW gene from Streptococcus suis UD to wild type Streptococcus suis UD

Row | MIC (Streptococcus suis [1]) | MIC (Streptococcus suis [2]) | Structure (SMILES) | Ratio (Streptococcus pyogenes)
1 | 4 µg/mL (≈ 5.45 µM) | > 256 µg/mL | CC[C@H]1OC(=O)[C@H](C)[C@@H](O[C@H]2C[C@@](C)(OC)[C@@H](O)[C@H](C)O2)[C@H](C)[C@@H](O[C@@H]2O[C@H](C)C[C@H](N(C)C)[C@H]2O)[C@](C)(O)C[C@@H](C)C(=O)[C@H](C)[C@@H](O)[C@]1(C)O [ERYTHROMYCIN] | 
2 |  |  | CN[C@@H]1[C@H](O[C@H]2[C@H](O[C@H]3[C@H](O)[C@@H](O)[C@H](N=C(N)N)[C@@H](O)[C@@H]3N=C(N)N)O[C@@H](C)[C@]2(O)C=O)O[C@@H](CO)[C@H](O)[C@H]1O [STREPTOMYCIN] | 8
3 | 8 µg/mL (≈ 18 µM) | 16 µg/mL (≈ 36 µM) | CN(C)[C@@H]1C(O)=C(C(N)=O)C(=O)[C@@]2(O)C(O)=C3C(=O)c4c(O)cccc4[C@@](C)(O)[C@H]3C[C@@H]12 [TETRACYCLINE] | 
4 |  |  | NC[C@H]1O[C@H](O[C@H]2[C@H](O)[C@@H](O[C@H]3O[C@H](CO)[C@@H](O)[C@H](N)[C@H]3O)[C@H](N)C[C@@H]2N)[C@H](O)[C@@H](O)[C@@H]1O [KANAMYCIN] | 16
